The source of these data is publication PMC6332235, “Phosphonylated Acyclic Guanosine Analogues with the 1,2,3-Triazole Linker” (Molecules, 2015).

In data set [1] the test system is human cervix carcinoma HeLa cells. The data set is described as follows: Cytostatic activity: inhibition of proliferation of human cervix carcinoma HeLa cells. The data set is classed as cell-based. The following applies: read-out: IC50 (HeLa). How it is done: (§1) The cytotoxicity of the tested compounds toward the uninfected host cells was defined as the minimum cytotoxic concentration (MCC) that causes a microscopically-detectable alteration of normal cell morphology. The 50% cytotoxic concentration (CC50), causing a 50% decrease in cell viability, was determined using a colorimetric 3-(4,5-dimethylthiazol-2-yl)-5-(3-carboxymethoxyphenyl)-2-(4-sulfophenyl)-2H-tetrazolium (MTS) assay system. The cytostatic activity of the tested compounds was defined as the 50% cytostatic inhibitory concentration (IC50), causing a 50% decrease in cell proliferation, and was determined against murine leukemia L1210, human T-lymphocyte CEM and human cervix carcinoma HeLa cells (Table 1).
(§2) All assays were performed in 96-well microtiter plates. To each well were added (5−7.5) × 10^4 tumor cells and a given amount of the test compound. The cells were allowed to proliferate for 48 h (murine leukemia L1210 cells) or 72 h (human lymphocytic CEM and human cervix carcinoma HeLa cells) at 37 °C in a humidified CO2-controlled atmosphere. At the end of the incubation period, the cells were counted in a Coulter counter. The IC50 (50% inhibitory concentration) was defined as the concentration of the compound that inhibited cell proliferation by 50%.

In data set [2] the test system is human T-lymphocyte CEM cells. Briefly: Cytostatic activity: inhibition of proliferation of human T-lymphocyte CEM cells. The data set is classed as cell-based. The note with it: CCRF-CEM, read-out: IC50 (CEM). Here is the method:
as §1, §2

Data set [3] concerns murine leukemia L1210 cells. The data set is described as follows: Cytostatic activity: inhibition of proliferation of murine leukemia L1210 cells. The data set is classed as cell-based. How it is done:
as §1, §2

Data set [4] has as its system thymidine phosphorylase. Also on record: method as in PMID 22372816. The following applies: cited from earlier work.
Setting [5] is: Mus musculus, L1210, 48 h, read-out: IC50 (L1210).
The mark [6] stands for this setting: human cervix carcinoma HeLa cells, 72 h proliferation, Coulter counter.
Where [7] appears, read: human T-lymphocyte CEM cells, 72 h proliferation, Coulter counter.
Setting [8] is: Mus musculus, L1210, 48 h, murine leukemia L1210 cells, 48 h proliferation, Coulter counter, read-out: IC50 (L1210).
Setting [9] is: Mus musculus, L1210, range over both L1210 and CEM cells and both 17k isomers, read-out: IC50 against proliferation of L1210 and CEM cell lines (range given).
Setting [10] is: range over both L1210 and CEM cells and both 17k isomers, read-out: IC50 against proliferation of L1210 and CEM cell lines (range given).

Read-outs that look alike come from different tables or passages of the source.

On to `CCOP(=O)(OCC)C(O)Cn1cc(Cn2cnc3c(=O)[nH]c(N)nc32)nn1` (stereo not shown) [Compound 16e, Diethyl 2-{4-[(2-amino-6-oxo-1,6-dihydro-9H-purin-9-yl)methyl]-1H-1,2,3-triazol-1-yl}-1-hydroxyethylphosphonate], for which the melting point (in general, the temperature of the solid-liquid transition) was greater than 265 °C. For the same compound, the IC50 in data set [1] (Homo sapiens, HeLa, 72 h) was found to be 206 ± 49 µM. In addition, in data set [2] (Homo sapiens, 72 h), the IC50 is greater than 250 µM. The IC50 in data set [3] (setting [5]) is greater than 250 µM.

With `Nc1nc2c(ncn2Cc2cn(CCCCC(F)(F)P(=O)(O)O)nn2)c(=O)[nH]1` [Compound 13], the “Inhibitory activity against thymidine phosphorylase” value in data set [4] is listed as “inhibitory activity”.

For the compound `CCOP(=O)(COCCn1cc(Cn2cnc3c(=O)[nH]c(N)nc32)nn1)OCC` [Compound 16h, Diethyl 2-{4-[(2-amino-6-oxo-1,6-dihydro-9H-purin-9-yl)methyl]-1H-1,2,3-triazol-1-yl}ethoxymethyphosphonate], the melting point lay within 89 to 92 °C. Further, in data set [1] (Homo sapiens, HeLa, 72 h), the IC50 was no less than 250 µM. In data set [2] (Homo sapiens, 72 h), the IC50 is greater than 250 µM. In addition, the IC50 in data set [3] (setting [5]) was greater than 250 µM.

For the compound `CCOP(=O)(OCC)C(O)Cn1cc(Cn2cnc3c(Cl)nc(N)nc32)nn1` (stereo not shown) [Compound 17e, Diethyl 2-{4-[(2-amino-6-chloro-9H-purin-9-yl)methyl]-1H-1,2,3-triazol-1-yl}-1-hydroxyethylphosphonate], the melting point was 174 to 175 °C. In addition, the IC50 in data set [1] (Homo sapiens, HeLa, 72 h) is greater than 250 µM. The IC50 in data set [2] (Homo sapiens, 72 h) was greater than 250 µM. Besides, the IC50 in data set [3] (setting [5]) is greater than 250 µM.

The compound `CCOP(=O)(CNC(=O)Cn1cc(Cn2cnc3c(=O)[nH]c(N)nc32)nn1)OCC` [Compound 16j, Diethyl 2-{4-[(2-amino-6-oxo-1,6-dihydro-9H-purin-9-yl)methyl]-1H-1,2,3-triazol-1-yl}acetamidomethyphosphonate] displayed a melting point greater than 230 °C. Further, the IC50 in data set [1] (Homo sapiens, HeLa, 72 h) was 212 ± 54 µM. In data set [2] (Homo sapiens, 72 h), the IC50 is greater than 250 µM. In addition, the IC50 in data set [3] (setting [5]) is greater than 250 µM.

Regarding `CCOP(=O)(Cn1cc(Cn2cnc3c(=O)[nH]c(N)nc32)nn1)OCC` [Compound 16a, Diethyl {4-[(2-amino-6-oxo-1,6-dihydro-9H-purin-9-yl)methyl]-1H-1,2,3-triazol-1-yl}methylphosphonate], the IC50 in data set [1] (Homo sapiens, HeLa, 72 h) was greater than 250 µM; in data set [2] (Homo sapiens, 72 h), greater than 250 µM; in data set [3] (setting [5]) it was greater than 250 µM.

Take `CCOP(=O)(CCOCCn1cc(Cn2cnc3c(Cl)nc(N)nc32)nn1)OCC` [Compound 17i, Diethyl 2-{4-[(2-amino-6-chloro-9H-purin-9-yl)methyl]-1H-1,2,3-triazol-1-yl}-ethoxyethylphosphonate]: the IC50 was greater than 250 µM in data set [1] (Homo sapiens, HeLa, 72 h); greater than 250 µM in data set [2] (Homo sapiens, 72 h); greater than 250 µM in data set [3] (setting [5]).

As for `CCOP(=O)(CCCn1cc(Cn2cnc3c(Cl)nc(N)nc32)nn1)OCC` [Compound 17c, Diethyl 3-{4-[(2-amino-6-chloro-9H-purin-9-yl)methyl]-1H-1,2,3-triazol-1-yl}propylphosphonate], the IC50 was no less than 250 µM in data set [1] (Homo sapiens, HeLa, 72 h); greater than 250 µM in data set [2] (Homo sapiens, 72 h); 227 ± 32 µM in data set [3] (setting [5]).

Take `O=c1[nH]cc(F)c(=O)[nH]1` [5-fluorouracil, reference compound]: the IC50 in data set [1] (setting [6]) is 0.54 ± 0.12 µM; in data set [2] (setting [7]) it was 18 ± 5 µM; in data set [3] (setting [8]), 0.33 ± 0.17 µM.

Regarding `CCOP(=O)(Cn1cc(Cn2cnc3c(Cl)nc(N)nc32)nn1)OCC` [Compound 17a, Diethyl {4-[(2-amino-6-chloro-9H-purin-9-yl)methyl]-1H-1,2,3-triazol-1-yl}methylphosphonate], the IC50 in data set [1] (Homo sapiens, HeLa, 72 h) was no less than 250 µM; in data set [2] (Homo sapiens, 72 h), no less than 250 µM; in data set [3] (setting [5]) it was 283 ± 17 µM.

With `CCOP(=O)(CC(O)Cn1cc(Cn2cnc3c(Cl)nc(N)nc32)nn1)OCC` (stereo not shown) [Compound 17f, Diethyl 3-{4-[(2-amino-6-chloro-9H-purin-9-yl)methyl]-1H-1,2,3-triazol-1-yl}-2-hydroxypropylphosphonate], the IC50 in data set [1] (Homo sapiens, HeLa, 72 h) was greater than 250 µM; in data set [2] (Homo sapiens, 72 h), greater than 250 µM; in data set [3] (setting [5]) it was greater than 250 µM.

In turn, `Nc1nc(Cl)c2ncn(Cc3cn(C[C@H](OCc4ccccc4)[C@@H](O)P(=O)(OCc4ccccc4)OCc4ccccc4)nn3)c2n1` [(1S,2S)-17k, (1S,2S)-Dibenzyl 3-{4-[(2-amino-6-chloro-9H-purin-9-yl)methyl]-1H-1,2,3-triazol-1-yl}-2-benzyloxy-1-hydroxypropylphosphonate] registered a melting point of 76 to 78 °C. Further, in data set [1] (setting [6]), the IC50 was 84 ± 12 µM. In addition, in data set [2] (setting [7]), the IC50 is 30 ± 16 µM. Also, the IC50 in data set [3] (setting [8]) came to 16 ± 6 µM. Also, the IC50 in data set [3] (setting [9]) was 15 to 30 µM. For the same compound, in data set [3] (setting [10]), the IC50 is 16 to 30 µM.

As to `Nc1nc(Cl)c2ncn(Cc3cn(C[C@H](OCc4ccccc4)[C@H](O)P(=O)(OCc4ccccc4)OCc4ccccc4)nn3)c2n1` [(1R,2S)-17k, (1R,2S)-Dibenzyl 3-{4-[(2-amino-6-chloro-9H-purin-9-yl)methyl]-1H-1,2,3-triazol-1-yl}-2-benzyloxy-1-hydroxypropylphosphonate], the IC50 in data set [1] (setting [6]) is 90 ± 33 µM; in data set [2] (setting [7]) it was 26 ± 8 µM; in data set [3] (setting [8]), 21 ± 2 µM; in data set [3] (setting [9]), 15 to 30 µM; in data set [3] (setting [10]), 16 to 30 µM.
